Laboratory results from ChEMBL document CHEMBL1201862, “PubChem BioAssay data set” (2004).
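96-well plates; 48 h exposure; 5 concentrations. Endpoints by linear interpolation between flanking doses. Not reached: highest tested concentration assigned. Here, GI50 denotes the concentration required for 50% inhibition of growth.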 Calls of active or inactive are those of the source. No stated cut-off is given here; in the data, active = GI50 up to about 1.1 µM and inactive = higher.

Columns and labels:
Assay in all cases: inhibition of tumour cell growth, NCI panel, 48 h
[1] = test system: NCI/ADR-RES
[2] = test system: ACHN
[3] = test system: SK-OV-3
[4] = test system: Malme-3M
[5] = test system: M14
[6] = test system: MDA-N
[7] = test system: MDA-MB-435
[8] = test system: SK-MEL-28
[9] = test system: HCT-15
[10] = test system: LOX IMVI
[11] = test system: 786-0
[12] = test system: SNB-19
[13] = test system: BT-549
[14] = test system: OVCAR-4
[15] = test system: SF-295
[16] = test system: UACC-62
[17] = test system: SK-MEL-2
[18] = test system: U-251
[19] = test system: T47D
[20] = test system: SK-MEL-5
[21] = test system: HCT-116
[22] = test system: CAKI-1
[23] = test system: TK-10
[24] = test system: DU-145
[25] = test system: HOP-62
[26] = test system: SF-268
[27] = test system: A498
[28] = test system: RPMI-8226
[29] = test system: HOP-92
[30] = test system: HL-60
[31] = test system: SN12C
[32] = test system: UACC-257
[33] = test system: MCF7
[34] = test system: SNB-75
[35] = test system: MDA-MB-231
[36] = test system: CCRF-CEM
[37] = test system: MOLT-4
[38] = test system: SF-539
[39] = test system: UO-31
[40] = test system: SR
[41] = test system: IGROV-1
[42] = test system: OVCAR-3
[43] = test system: EKVX
[44] = test system: SW-620
[45] = test system: K562
[46] = test system: NCI-H460
[47] = test system: HCC 2998
[48] = test system: RXF 393
[49] = test system: NCI-H226
[50] = test system: PC-3
[51] = test system: HT-29
[52] = test system: KM12
[53] = test system: A549
[54] = test system: OVCAR-8
[55] = test system: NCI-H522
[56] = test system: COLO 205
[57] = test system: NCI-H23
[58] = test system: OVCAR-5
[59] = test system: Hs-578T

Measured: GI50

CC1(c2ccc(Cl)cc2)N=C(NCCO)c2ccccc21 (stereo not drawn)
26.9 µM: [9]
inactive: [1] 99.5 µM | [2] 29.4 µM | [3] 88.7 µM | [4] 17.9 µM | [5] 9.84 µM | [6] 10.7 µM | [7] 12.2 µM | [8] 9.75 µM | [10] 13.8 µM | [11] 12.5 µM | [12] 14.7 µM | [13] 42 µM | [14] 67.9 µM | [15] 8.36 µM | [16] 12 µM | [17] 18.2 µM | [18] 16.9 µM | [19] 15.9 µM | [20] 14.8 µM | [21] 5.37 µM | [22] > 71 µM | [23] 41.4 µM | [24] 2.07 µM | [25] 25.1 µM | [26] 42.9 µM | [27] 18.6 µM | [28] 2.74 µM | [29] 8.53 µM | [30] 3.23 µM | [31] 16.9 µM | [32] 17.1 µM | [33] 20.7 µM | [34] 19.5 µM | [35] 19.1 µM | [36] 2.9 µM | [37] 8.49 µM | [38] 2.25 µM | [39] 17.8 µM | [40] 16.4 µM | [41] 22.9 µM | [42] 56.1 µM | [43] > 100 µM | [44] 10.5 µM | [45] 6.61 µM | [46] 13.3 µM | [47] 12.2 µM | [48] 16.3 µM | [49] 11.1 µM | [50] 32.7 µM | [51] 5.74 µM | [52] 15.7 µM | [53] 23.7 µM | [54] 51.8 µM | [55] 26.4 µM | [56] 13.5 µM | [57] 13.8 µM | [58] 19.2 µM | [59] 37.8 µM

ClCC[N+]12CC[N+](CCCl)(CC1)C2
inactive: [1] > 100 µM | [2] > 100 µM | [3] > 100 µM | [4] > 100 µM | [5] > 100 µM | [6] > 100 µM | [7] > 100 µM | [8] > 100 µM | [10] > 100 µM | [11] > 100 µM | [12] > 100 µM | [13] > 100 µM | [14] > 100 µM | [15] > 100 µM | [16] > 100 µM | [17] > 100 µM | [18] > 100 µM | [19] > 100 µM | [20] > 100 µM | [21] > 100 µM | [22] > 75.5 µM | [23] > 100 µM | [24] > 100 µM | [25] > 100 µM | [26] > 100 µM | [27] > 100 µM | [28] > 100 µM | [29] > 100 µM | [30] > 100 µM | [31] > 100 µM | [32] > 100 µM | [33] > 100 µM | [34] > 100 µM | [35] > 100 µM | [36] > 100 µM | [37] > 100 µM | [38] > 100 µM | [39] > 100 µM | [40] 55 µM | [41] > 100 µM | [42] > 100 µM | [43] > 100 µM | [44] > 100 µM | [45] > 100 µM | [46] > 87.7 µM | [47] > 100 µM | [48] > 100 µM | [49] > 100 µM | [50] > 100 µM | [51] > 100 µM | [52] > 100 µM | [53] > 100 µM | [54] > 100 µM | [55] > 100 µM | [56] > 100 µM | [57] > 100 µM | [58] > 100 µM | [59] > 100 µM
> 100 µM: [9]
